Measured values from patent US9994558B2, “Multicyclic compounds and methods of using same” (Karyopharm Therapeutics Inc., priority 2013, dated 2018).
pIC50: −log10 of the molar value.

Tests used:
Type in all cases: cell-based
3T3 cells = assay: MTT cell proliferation assay, 3T3 cells; conditions: Mus musculus, NIH3T3; 3T3 fibroblast cells; incubation approximately 64-72 hours
Experimental: (§1) The MTT cell proliferation assay was used to study the cytotoxic properties of the compounds. The assay was performed according to the method described by Roche Molecular Biochemicals, with minor modifications. The assay is based on the cleavage of the tetrazolium salt, MTT, in the presence of an electron-coupling reagent. The water-insoluble formazan salt produced must be solubilized in an additional step. Cells grown in a 96-well tissue culture plate were incubated with the MTT solution for approximately 4 hours. After this incubation period, a water-insoluble formazan dye formed. After solubilization, the formazan dye was quantitated using a scanning multi-well spectrophotometer (ELISA reader). […] The cells were seeded at 5,000-10,000 cells in each well of 96-well plate in 100 μL of fresh culture medium and were allowed to attach overnight. The stock solutions of the compounds were diluted in 100 μL cell culture medium to obtain eight concentrations of each test compound, ranging from 1 nM to 30 μM. […] All optical densities were measured at 490 nm using a Vmax Kinetic Microplate Reader (Molecular Devices). In most cases, the assay was performed in duplicate and the results were presented as a mean percent inhibition to the negative control±SE. The following formula was used to calculate the percent of inhibition. Inhibition (%)=(1−(ODo/OD))×100.
(§2) The compounds were tested against MS751, Z138 and 3T3 cells. The MS751 cell line is derived from a metastasis to lymph node of human cervix from a patient diagnosed with squameous cell carcinoma of the cervix. The […] cell line is a mature B-cell acute lymphoblastic leukemia cell line derived from a patient with chronic lymphocytic leukemia. 3T3 cells are standard fibroblast cells; they were originally isolated from Swiss mouse embryo tissue.

Z138 cells = assay: MTT cell proliferation assay, Z138 cells; conditions: Homo sapiens, Z-138, incubation approximately 64-72 hours
Experimental: as §1, §2

MS751 cells = assay: MTT cell proliferation assay, MS751 cells; conditions: Homo sapiens, incubation approximately 64-72 hours
Experimental: as §1, §2

| Structure (SMILES) | pIC50 (3T3 cells) | pIC50 (Z138 cells) | pIC50 (MS751 cells) |
| --- | --- | --- | --- |
| CC(=O)c1ccc(-c2ccc(OCCNC(=O)/C=C/c3cccnc3)c(Cl)c2)s1 [Compound 300, (E)-N-(2-(4-(5-acetylthiophen-2-yl)-2-chlorophenoxy)ethyl)-3-(pyridin-3-yl)acrylamide] | < 5.00 | 5.30 to 7.00 | 5.30 to 7.00 |
| CC(O)c1ccc(-c2ccc(OCCNC(=O)/C=C/c3cccnc3)c(Cl)c2)s1 (stereo not drawn) [Compound 301, (E)-N-(2-(2-chloro-4-(5-(1-hydroxyethyl)thiophen-2-yl)phenoxy)ethyl)-3-(pyridin-3-yl) acrylamide] | 5.30 to 7.00 | 5.30 to 7.00 | > 7.00 |
| CC(=O)c1ccc(-c2cccc(OCCNC(=O)/C=C/c3cccnc3)c2Cl)s1 [Compound 302, (E)-N-(2-(3-(5-acetylthiophen-2-yl)-2-chlorophenoxy)ethyl)-3-(pyridin-3-yl) acrylamide] | 5.30 to 7.00 | 5.30 to 7.00 | > 7.00 |
| CC(=O)c1ccc(-c2ccc(Cl)c(OCCNC(=O)/C=C/c3cccnc3)c2)s1 [Compound 303, (E)-N-(2-(5-(5-acetylthiophen-2-yl)-2-chlorophenoxy)ethyl)-3-(pyridin-3-yl)acrylamide] | < 5.00 | 5.30 to 7.00 | 5.30 to 7.00 |
| CC(=O)c1ccc(-c2ccc(OCCNC(=O)/C=C/c3cccnc3Cl)c(Cl)c2)s1 [Compound 304, (E)-N-(2-(4-(5-acetylthiophen-2-yl)-2-chlorophenoxy)ethyl)-3-(2-chloropyridin-3-yl) acrylamide] | < 5.00 | < 5.00 | 5.00 to 5.30 |
| CC(=O)c1ccc(-c2ccc(OCCNC(=O)/C=C/c3cccnc3C)c(Cl)c2)s1 [Compound 305, (E)-N-(2-(4-(5-acetylthiophen-2-yl)-2-chlorophenoxy)ethyl)-3-(2-methylpyridin-3-yl) acrylamide] | < 5.00 | < 5.00 | < 5.00 |
| CC(=O)c1ccc(-c2ccc(OCCNC(=O)CCc3cccnc3)c(Cl)c2)s1 [Compound 306, N-(2-(4-(5-acetylthiophen-2-yl)-2-chlorophenoxy)ethyl)-3-(pyridin-3-yl)propanamide] | < 5.00 | < 5.00 | 5.00 to 5.30 |
| CC(=O)c1ccc(-c2ccc(OCCNC(=O)/C=C/c3c(C)noc3C)c(Cl)c2)s1 [Compound 307, (E)-N-(2-(4-(5-acetylthiophen-2-yl)-2-chlorophenoxy)ethyl)-3-(3,5-dimethylisoxazol-4-yl)acrylamide] | < 5.00 | < 5.00 | < 5.00 |
| CC(=O)c1ccc(-c2ccc(OCCNC(=O)/C=C/c3ccc(N)nc3)c(Cl)c2)s1 [Compound 308, (E)-N-(2-(4-(5-acetylthiophen-2-yl)-2-chlorophenoxy)ethyl)-3-(6-aminopyridin-3-yl) acrylamide] | < 5.00 | 5.30 to 7.00 | 5.30 to 7.00 |
| CC(=O)c1ccc(-c2ccc(OCCNC(=O)C#Cc3cccnc3)c(Cl)c2)s1 [Compound 309, N-(2-(4-(5-acetylthiophen-2-yl)-2-chlorophenoxy)ethyl)-3-(pyridin-3-yl)propiolamide] | < 5.00 | < 5.00 | < 5.00 |
| CC(=O)c1ccc(-c2ccc(OCCNC(=O)/C=C/c3cccnn3)c(Cl)c2)s1 [Compound 310, (E)-N-(2-(4-(5-acetylthiophen-2-yl)-2-chlorophenoxy)ethyl)-3-(pyridazin-3-yl)acrylamide] | < 5.00 | < 5.00 | < 5.00 |
| CC(=O)c1ccc(-c2ccc(OCCN(C)C(=O)/C=C/c3cccnc3)c(Cl)c2)s1 [Compound 311, (E)-N-(2-(4-(5-acetylthiophen-2-yl)-2-chlorophenoxy)ethyl)-N-methyl-3-(pyridin-3-yl)acrylamide] | 5.30 to 7.00 | 5.30 to 7.00 | 5.30 to 7.00 |
| CC(=O)c1ccc(-c2ccccc2OCCNC(=O)/C=C/c2cccnc2)s1 [Compound 312, (E)-N-(2-(2-(5-acetylthiophen-2-yl)phenoxy)ethyl)-3-(pyridin-3-yl)acrylamide] | 5.30 to 7.00 | 5.30 to 7.00 | 5.30 to 7.00 |
